One assay deals with T1, plasma kallikrein (Homo sapiens, UniProt P03952).
T1 construct: PFR-AMC substrate
Briefly: Neat Human Plasma Assay (Fluorogenic Peptide), contact pathway-activated (FXIIa) plasma. Type of assay: biochemical. As to conditions: human citrated plasma 78% final; 10 nM human FXIIa; PFR-AMC substrate; 5 minutes; room temperature. The method, boiled down: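 Compound spiked into citrated human plasma (78% final), or plasma taken from rats dosed orally or IV. Activation by 10 nM FXIIa, then […] PFR-AMC in PKa buffer pH 7.5 at room temperature. Fluorescence rate over 5 min, with IC50/IC90 from 4-parameter fit.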

The target in assay [1] is human activated kallikrein enzyme (Homo sapiens, UniProt P03952). Briefly: Inhibition of human activated plasma kallikrein, fluorogenic PFR-AMC substrate, 500 pM enzyme format. Type of assay: biochemical. The following applies: 500 pM activated kallikrein; 300 μM PFR-AMC; 30 min preincubation; 10 min room temperature; pH 7.5; read-out: Primary Dose Response Assay: Average EC50. The method, boiled down: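 500 pM activated kallikrein preincubated 30 min at room temperature with inhibitors in pH 7.5 Tris/EDTA/NaCl buffer with PEG-400 and Triton X-100. Reaction started with 300 μM PFR-AMC, run 10 min at room temperature; AMC fluorescence read at ex 380/em 460 nm.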

Counter-ions that a name gives are not always drawn.

Chain of human activated kallikrein enzyme (P03952 391-638 limits assumed): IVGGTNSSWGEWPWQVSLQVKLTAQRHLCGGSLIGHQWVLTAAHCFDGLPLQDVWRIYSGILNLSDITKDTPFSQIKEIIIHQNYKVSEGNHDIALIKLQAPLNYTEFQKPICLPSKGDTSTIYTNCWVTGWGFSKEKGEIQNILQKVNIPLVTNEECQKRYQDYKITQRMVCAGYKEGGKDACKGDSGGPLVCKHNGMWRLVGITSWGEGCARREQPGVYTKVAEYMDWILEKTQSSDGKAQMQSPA
Chain of human activated kallikrein enzyme (P03952 20-390 partner limits assumed): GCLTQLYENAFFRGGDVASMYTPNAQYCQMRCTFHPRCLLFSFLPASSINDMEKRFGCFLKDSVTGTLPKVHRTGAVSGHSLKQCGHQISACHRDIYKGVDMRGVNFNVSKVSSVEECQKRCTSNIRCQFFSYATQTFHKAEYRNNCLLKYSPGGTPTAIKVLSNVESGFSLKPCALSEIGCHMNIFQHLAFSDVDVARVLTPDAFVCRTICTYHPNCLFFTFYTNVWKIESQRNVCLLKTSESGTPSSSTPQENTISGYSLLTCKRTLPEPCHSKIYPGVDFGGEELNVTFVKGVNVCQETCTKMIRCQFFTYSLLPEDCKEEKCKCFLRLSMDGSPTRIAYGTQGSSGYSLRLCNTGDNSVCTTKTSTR
T1 sequence (P03952 20-638): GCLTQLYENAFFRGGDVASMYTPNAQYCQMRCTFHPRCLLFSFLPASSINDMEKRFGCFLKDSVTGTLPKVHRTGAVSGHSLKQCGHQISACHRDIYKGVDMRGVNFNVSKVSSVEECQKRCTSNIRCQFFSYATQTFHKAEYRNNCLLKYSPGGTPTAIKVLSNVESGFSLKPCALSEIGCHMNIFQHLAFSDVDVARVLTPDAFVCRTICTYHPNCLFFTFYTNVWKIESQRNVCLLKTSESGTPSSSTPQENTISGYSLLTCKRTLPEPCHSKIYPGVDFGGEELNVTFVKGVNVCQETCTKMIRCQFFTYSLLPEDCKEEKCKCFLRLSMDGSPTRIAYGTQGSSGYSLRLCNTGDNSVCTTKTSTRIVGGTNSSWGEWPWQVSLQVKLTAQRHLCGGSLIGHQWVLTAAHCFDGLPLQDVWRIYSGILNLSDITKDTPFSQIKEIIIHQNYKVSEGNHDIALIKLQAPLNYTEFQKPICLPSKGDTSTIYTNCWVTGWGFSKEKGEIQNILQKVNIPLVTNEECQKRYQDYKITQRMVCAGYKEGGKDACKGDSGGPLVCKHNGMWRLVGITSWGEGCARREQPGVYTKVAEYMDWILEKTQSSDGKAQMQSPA

The IC90 is the point of the concentration-response curve where the effect stands at 90%. Low values mean greater potency, high ones weaker potency. A word on the EC50: it is the concentration that produces a half-maximal response. At plasma kallikrein, `Cc1cnc2ccc(COc3cnnc(NCc4c(C)cc5c(N)nccc5c4C)c3)cc2c1` [Example 416, 5,7-dimethyl-6-(((5-((3-methylquinolin-6-yl)methoxy)pyridazin-3-yl)amino)methyl)isoquinolin-1-amine] had an IC90 of 1000 to 5000 nM. Besides, the 50% effective concentration (EC50) in assay [1] was less than 1 nM.

On plasma kallikrein, `Cc1cc2c(N)nccc2c(C)c1CNc1cc(OCc2ccc3ncc(C4CC4)cc3c2)cnn1` [Example 422, 6-(((5-((3-cyclopropylquinolin-6-yl)methoxy)pyridazin-3-yl)amino)methyl)-5,7-dimethylisoquinolin-1-amine] came in with a 90% effect concentration (IC90) of 1000 to 5000 nM. The EC50 in assay [1] is less than 1 nM.

`Cc1cc2c(N)nccc2c(C)c1CNc1cc(OCc2cn3cc(C4CC4)ccc3n2)cnn1` [Example 426, 6-(((5-((6-cyclopropylimidazo[1,2-a]pyridin-2-yl)methoxy)pyridazin-3-yl)amino)methyl)-5,7-dimethylisoquinolin-1-amine, formic acid salt] came in with an IC90 at plasma kallikrein of 1000 to 5000 nM. For the same compound, the EC50 in assay [1] was less than 1 nM.

Consider `Cc1cc2c(N)nccc2c(C)c1CNc1cc(OCc2ccc(Cn3cccn3)cc2)cnn1` [Example 432, 6-(((5-((4-((1H-pyrazol-1-yl)methyl)benzyl)oxy)pyridazin-3-yl)amino)methyl)-5,7-dimethylisoquinolin-1-amine], for which, on plasma kallikrein, the concentration for an effect of 90% (IC90) lay in the range of 1000 to 5000 nM. In addition, the concentration giving a half-maximal response (EC50) in assay [1] was less than 1 nM.

Consider `Cc1cc2c(N)nccc2c(C)c1CNc1cc(NCc2ccc(Cn3cccn3)cc2)c(C(F)(F)F)nn1` [Example 451, N^5-(4-((1H-pyrazol-1-yl)methyl)benzyl)-N^3-((1-amino-5,7-dimethylisoquinolin-6-yl)methyl)-6-(trifluoromethyl)pyridazine-3,5-diamine], for which the IC90 on plasma kallikrein lay in the range of 1000 to 5000 nM. In addition, in assay [1], the EC50 was less than 1 nM.

On plasma kallikrein, `Cc1cc2c(N)nccc2c(C)c1CNc1nccn2nc(Cc3cn4cc(C5CC5)ccc4n3)nc12` [Example 498, 6-(((2-((6-cyclopropylimidazo[1,2-a]pyridin-2-yl)methyl)-[1,2,4]triazolo[1,5-a]pyrazin-8-yl)amino)methyl)-5,7-dimethylisoquinolin-1-amine] showed an IC90 of 1000 to 5000 nM. Moreover, in assay [1], the EC50 was 1 to 10 nM.

Consider `Cc1cc2c(N)nccc2c(C)c1CNc1cc2c(cn1)ncn2Cc1cn2cc(C3CC3)ccc2n1` [Example 499, 6-(((1-((6-cyclopropylimidazo[1,2-a]pyridin-2-yl)methyl)-1H-imidazo[4,5-c]pyridin-6-yl)amino)methyl)-5,7-dimethylisoquinolin-1-amine], for which, at plasma kallikrein, the IC90 was not above 1000 nM. The EC50 in assay [1] was less than 1 nM.

`Cc1cc2c(N)nccc2c(C)c1CNc1nccc2nc(Cc3cn4cc(C5CC5)ccc4n3)[nH]c12` [Example 500, 6-(((2-((6-cyclopropylimidazo[1,2-a]pyridin-2-yl)methyl)-3H-imidazo[4,5-c]pyridin-4-yl)amino)methyl)-5,7-dimethylisoquinolin-1-amine] gave an IC90 at plasma kallikrein of more than 5000 nM. In assay [1], the EC50 was less than 1 nM.

On plasma kallikrein, `Cc1cc2c(N)nccc2c(C)c1CNc1cc2c(cn1)nnn2Cc1cn2cc(C3CC3)ccc2n1` [Example 501, 6-(((1-((6-cyclopropylimidazo[1,2-a]pyridin-2-yl)methyl)-1H-[1,2,3]triazolo[4,5-c]pyridin-6-yl)amino)methyl)-5,7-dimethylisoquinolin-1-amine] displayed an IC90 not above 1000 nM. In assay [1], the concentration for a half-maximal effect (EC50) is less than 1 nM.

Turning to `Cc1cc2c(N)nccc2c(C)c1CNc1cc2c(cn1)ncn2Cc1nc2ccc(C3CC3)cn2n1` [Example 503, 6-(((1-((6-cyclopropyl-[1,2,4]triazolo[1,5-a]pyridin-2-yl)methyl)-1H-imidazo[4,5-c]pyridin-6-yl)amino)methyl)-5,7-dimethylisoquinolin-1-amine], on plasma kallikrein, the IC90 was not above 1000 nM. For the same compound, the EC50 in assay [1] was less than 1 nM.

`Cc1cc2c(N)nccc2c(C)c1CNc1cc2c(cn1)ncn2Cc1cc2cc(C3CC3)cnc2s1` [Example 504, 6-(((1-((5-cyclopropylthieno[2,3-b]pyridin-2-yl)methyl)-1H-imidazo[4,5-c]pyridin-6-yl)amino)methyl)-5,7-dimethylisoquinolin-1-amine] came in with an IC90 against plasma kallikrein not above 1000 nM. In addition, the concentration for a half-maximal effect (EC50) in assay [1] is less than 1 nM.

As to `Cc1cc2c(N)nccc2c(C)c1CNc1cc(OCc2cc3cc(C4CC4)cc(CCC(C)(C)O)n3n2)ncn1` [Example 508, 4-(2-(((6-(((1-amino-5,7-dimethylisoquinolin-6-yl)methyl)amino)pyrimidin-4-yl)oxy)methyl)-5-cyclopropylpyrazolo[1,5-a]pyridin-7-yl)-2-methylbutan-2-ol], the concentration for an effect of 90% (IC90) against plasma kallikrein is more than 5000 nM. Further, in assay [1], the half-maximal effective concentration (EC50) is 1 to 10 nM.

`Cc1cc2c(N)nccc2c(C)c1CNc1cc(OCc2cc3cc(C4CC4)cc(CC(C)(C)C(N)=O)n3n2)ncn1` [Example 509, 3-(2-(((6-(((1-amino-5,7-dimethylisoquinolin-6-yl)methyl)amino)pyrimidin-4-yl)oxy)methyl)-5-cyclopropylpyrazolo[1,5-a]pyridin-7-yl)-2,2-dimethylpropanamide] came in with a 90% effect concentration (IC90) against plasma kallikrein of 1000 to 5000 nM. Further, the EC50 in assay [1] is less than 1 nM.

With `Cc1cc2c(N)nccc2c(C)c1CNc1cc(OCc2cc3cc(C4CC4)cc(CC(C)(C)C#N)n3n2)ncn1` [Example 510, 3-(2-(((6-(((1-amino-5,7-dimethylisoquinolin-6-yl)methyl)amino)pyrimidin-4-yl)oxy)methyl)-5-cyclopropylpyrazolo[1,5-a]pyridin-7-yl)-2,2-dimethylpropanenitrile], the IC90 against plasma kallikrein was 1000 to 5000 nM. In addition, the EC50 in assay [1] lay within 1 to 10 nM.

As for `Cc1cc2c(N)nccc2c(C)c1CNc1cc(N2C[C@@H](O)C[C@@H]2c2cn3cc(C4CC4)ccc3n2)ncn1` [Example 513, (3S,5R)-1-(6-(((1-amino-5,7-dimethylisoquinolin-6-yl)methyl)amino)pyrimidin-4-yl)-5-(6-cyclopropylimidazo[1,2-a]pyridin-2-yl)pyrrolidin-3-ol], the IC90 against plasma kallikrein was not above 1000 nM. The EC50 in assay [1] was less than 1 nM.

In the case of `Cc1cc2c(N)nccc2c(C)c1CNC(=O)c1ccnc(Cc2cn3cc(C4CC4)ccc3n2)c1` [Example 514, N-((1-amino-5,7-dimethylisoquinolin-6-yl)methyl)-2-((6-cyclopropylimidazo[1,2-a]pyridin-2-yl)methyl)isonicotinamide], the concentration for an effect of 90% (IC90) against plasma kallikrein was not above 1000 nM. Also, in assay [1], the EC50 is less than 1 nM.

Compound `Cc1ccc2cc(Cn3ccc4nnc(NCc5c(C)cc6c(N)nccc6c5C)cc43)ccc2n1` [Example 515, 5,7-dimethyl-6-(((5-((2-methylquinolin-6-yl)methyl)-5H-pyrrolo[3,2-c]pyridazin-3-yl)amino)methyl)isoquinolin-1-amine] came in with an IC90 against plasma kallikrein of 1000 to 5000 nM. Also, the concentration for a half-maximal effect (EC50) in assay [1] was less than 1 nM.

`Cc1c(CNc2cc(OCc3ccc(Cn4cccn4)cc3)ncn2)ccc2c(N)nccc12` [Example 533, 6-(((6-((4-((1H-pyrazol-1-yl)methyl)benzyl)oxy)pyrimidin-4-yl)amino)methyl)-5-methylisoquinolin-1-amine] came in with an IC90 on plasma kallikrein of more than 5000 nM. Moreover, the half-maximal effective concentration (EC50) in assay [1] is 1 to 10 nM.

As for `Cc1cc2c(N)nccc2c(C)c1CNc1cc2c(ccn2Cc2ccc(Cn3cccn3)cc2)nn1` [Example I-457, 6-(((5-(4-((1H-pyrazol-1-yl)methyl)benzyl)-5H-pyrrolo[3,2-c]pyridazin-3-yl)amino)methyl)-5,7-dimethylisoquinolin-1-amine], the IC90 against plasma kallikrein is not above 1000 nM. For the same compound, the EC50 in assay [1] was less than 1 nM.

With `Cc1cc2c(N)nccc2c(C)c1CNC(=O)c1cnn(Cc2nc3ccc(C4CC4)cn3n2)c1` [Example I-482, N-((1-amino-5,7-dimethylisoquinolin-6-yl)methyl)-1-((6-cyclopropyl-[1,2,4]triazolo[1,5-a]pyridin-2-yl)methyl)-1H-pyrazole-4-carboxamide], the IC90 against plasma kallikrein is not above 1000 nM. Moreover, the half-maximal effective concentration (EC50) in assay [1] was less than 1 nM.

“N-((1-amino-5,7-dimethylisoquinolin-6-yl)methyl)-1-(4-((2-oxopyridin-1(2H)-y1)methyl)benzyl)-1H-1,2,3-triazole-4-carboxamide [Example 186]”: at plasma kallikrein, the IC90 is not above 1000 nM. Moreover, the EC50 in assay [1] is less than 1 nM.
